According to patent US20120202856A1, “SUBSTITUTED BENZIMDAZOLE DERIVATIVES USEFUL AS TRPM8 RECEPTOR MODULATORS” (priority 2011, published 2012):
Several values for one entry are separate records, joined by “and”; a condition that tells them apart may be missing. Identical values can stand only once.

Key:
canine TRPM8 = molecular target: T1, canine TRPM8 (Canis lupus familiaris, UniProt Q1A7N1); test: In Vitro Canine TRPM8 Functional Assay (intracellular Ca2+ fluorescence, icilin activation, HEK293 cells); type: cell-based; settings: for IC50: HEK293 cells expressing canine TRPM8, icilin activation, individually measured values (batches/salt forms), read-out: IC50 (nM), in vitro TRP M8 Activity
T1 construct: expressed in transfected cells
T1 sequence (Q1A7N1 1-1104): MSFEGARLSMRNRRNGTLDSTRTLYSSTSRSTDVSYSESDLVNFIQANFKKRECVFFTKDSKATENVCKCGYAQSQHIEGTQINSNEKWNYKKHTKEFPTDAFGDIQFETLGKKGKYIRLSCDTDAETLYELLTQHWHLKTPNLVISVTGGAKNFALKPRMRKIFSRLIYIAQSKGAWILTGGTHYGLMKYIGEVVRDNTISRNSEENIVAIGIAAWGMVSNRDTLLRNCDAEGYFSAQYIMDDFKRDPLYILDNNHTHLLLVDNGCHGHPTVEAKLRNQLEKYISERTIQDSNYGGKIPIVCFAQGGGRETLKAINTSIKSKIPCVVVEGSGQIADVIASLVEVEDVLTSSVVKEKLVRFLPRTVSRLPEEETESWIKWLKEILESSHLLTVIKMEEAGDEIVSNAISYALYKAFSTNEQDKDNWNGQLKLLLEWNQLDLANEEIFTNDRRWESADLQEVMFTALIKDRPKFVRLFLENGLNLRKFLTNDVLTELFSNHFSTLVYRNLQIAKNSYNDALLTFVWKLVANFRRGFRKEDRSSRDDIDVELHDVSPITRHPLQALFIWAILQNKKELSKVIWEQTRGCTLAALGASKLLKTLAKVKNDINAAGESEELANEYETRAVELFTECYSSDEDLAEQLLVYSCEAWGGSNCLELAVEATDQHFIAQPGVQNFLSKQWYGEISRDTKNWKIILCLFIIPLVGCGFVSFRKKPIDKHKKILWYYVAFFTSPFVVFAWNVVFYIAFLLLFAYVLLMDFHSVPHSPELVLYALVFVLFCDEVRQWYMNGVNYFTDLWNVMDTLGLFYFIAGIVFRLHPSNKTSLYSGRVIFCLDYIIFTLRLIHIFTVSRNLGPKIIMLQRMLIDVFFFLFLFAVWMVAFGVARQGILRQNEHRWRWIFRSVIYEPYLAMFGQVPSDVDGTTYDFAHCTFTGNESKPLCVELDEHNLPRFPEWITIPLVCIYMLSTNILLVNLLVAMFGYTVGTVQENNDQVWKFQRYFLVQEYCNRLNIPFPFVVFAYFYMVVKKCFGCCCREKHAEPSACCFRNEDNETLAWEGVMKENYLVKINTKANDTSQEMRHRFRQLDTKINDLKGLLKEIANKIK
How it was run: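 Inhibition of icilin-evoked calcium influx measured by Calcium 3 fluorescence (FLIPR or FDSS) in canine TRPM8 HEK293 cells. After basal subtraction, data expressed as percent of maximum; quadruplicate means fitted by sigmoidal dose–response to give IC50.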

[1] = test system: icilin-induced “wet-dog” shakes (WDS); test: Inhibition of Icilin-Induced “Wet-Dog” Shakes in Rats; type: in vivo, Sprague Dawley rats; settings: po, rat, 1.5 hrs
Experimental: The test compound was administered in 10% hydroxypropyl-β-cyclodextrin (HP-13-CD), p.o., 60 min before icilin.
% Inhibition=[1−(test compound WDS count/vehicle WDS count)]×100.

[2] = test system: CCI-induced cold hypersensitivity; test: Chronic Constriction Injury (CCI)-Induced Model of Neuropathic Pain, Acetone-Induced Hypersensitivity; type: in vivo, Sprague-Dawley rats; settings: rat, p.o., acetone-induced withdrawals, 2 h after administration
Description: Male Sprague-Dawley rats (225-450 g; n=5-8/treatment) were used to evaluate the ability of test compounds to reverse CCl-induced cold hypersensitivity. Four loose ligatures of 4-0 chromic gut were surgically placed around the left sciatic nerve under inhalation anesthesia as described by Bennett et al. (BENNETT, G. J., et al., “A peripheral mononeuropathy in rat that produces disorder of pain sensation like those seen in man”, Pain, 1988, pp 87-107, Vol. 33(1)). Fourteen to 35 days following CCl surgery, subjects were placed in elevated observation chambers containing wire mesh floors, and five applications of acetone (0.05 mL/application separated by approximately 5 min) were spritzed onto the plantar surface of the paw using a multidose syringe. An abrupt withdrawal or lifting of the paw was considered a positive response. The number of positive responses was recorded for each rat over the five trials. […] The number of withdrawals was re-determined at 2 hr after compound administration. […] Results are presented below as a percent inhibition of […], which was calculated for each subject and then averaged by treatment as follows: […]

rats = settings: cited from earlier work
humans = settings: 5-10 mg ingested orally; cited from earlier work

SMILES: Cl.Cn1nc(C(C)(C)C)c(Cl)c1-c1nc2cc(-c3ccccc3F)ccc2[nH]1 [Compound 90, 2-(5-tert-Butyl-4-chloro-2-methyl-2H-pyrazol-3-yl)-5-(2-fluoro-phenyl)-1H-benzimidazole hydrochloride]
- IC50 (canine TRPM8): 7.4 nM and 5 nM and 9.3 nM
- inhibition in vivo at 5.6 mg/kg ([1]; dose 5.6 mg/kg): 52.7%
- CCI % Inhibition @ 2 h [2]: 22.5%

SMILES: Cl.Cn1nc(C(C)(C)C)c(Cl)c1-c1nc2cc(-c3c(F)cccc3F)ccc2[nH]1 [Compound 85, 2-(5-tert-Butyl-4-chloro-2-methyl-2H-pyrazol-3-yl)-5-(2,6-difluoro-phenyl)-1H-benzimidazole hydrochloride]
- IC50 (canine TRPM8): 3.7 nM and 4.6 nM and 3.8 nM
- inhibition in vivo at 10 mg/kg ([1]; p.o., dose 10 mg/kg, read-out: Icilin % Inhibition @1.5 hrs): 96.4%
- CCI % Inhibition @ 2 h [2]: 34.3%

SMILES: O=C1NC(c2cccc([N+](=O)[O-])c2)=CCN1c1ccccc1O [Icilin]
- behaviour caused in initial in vivo testing (rats): “wet-dog” shakes
- coldness in the mouth, pharynx and chest lasting (humans): 30 to 60 min

SMILES: CC(C)(C)c1cc(-c2nc3cc(-c4ccccc4OC(F)(F)F)ccc3[nH]2)on1.[Na] [Compound 10, 2-(3-tert-Butylisoxazol-5-yl)-5-(2-trifluoromethoxyphenyl)-1H-benzimidazole sodium salt]
- IC50 (canine TRPM8): 12 nM and 15 nM and 10 nM
- inhibition in vivo at 30 mg/kg ([1]; dose 30 mg/kg): 97.3%
- CCI % Inhibition @ 2 h [2]: 57.1%

SMILES: Cn1nc(C(C)(C)C)c(C#N)c1-c1nc2cc(-c3ccccc3Cl)cc(Cl)c2[nH]1.[Na] [Compound 168, 3-tert-Butyl-5-[7-chloro-5-(2-chloro-phenyl)-1H-benzimidazol-2-yl]-1-methyl-1H-pyrazole-4-carbonitrile sodium salt]
- % Inh (%) @0.2 μM, in vitro TRP M8 Activity (canine TRPM8; 0.2 μM test compound, individually measured values, sodium salt, 0.2 µM): 101% and 100% (2×)
- inhibition at 0.2 µM (canine TRPM8; HEK293, 0.2 μM test compound, individually measured values, read-out: % Inh (%) @0.2 μM, in vitro TRP M8 Activity): 99%
- IC50 (canine TRPM8): 2.3 nM and 7 nM and 4.3 nM and 4.7 nM and 3.2 nM
- inhibition in vivo at 3 mg/kg ([1]; p.o., dose 3 mg/kg, read-out: Icilin % Inhibition @1.5 hrs): 86%
- CCI % Inhibition @ 2 h [2]: 74.3%
